Measurements as given in a compilation of properties of binary mixtures (doi:10.1016/j.molliq.2022.118933).

Assay: xn = mol fraction of the nth substance listed
Settings: 100 kPa

CCCC[N+](C)(C)C[c-]1cccc1.O=S(=O)([N-]S(=O)(=O)C(F)(F)F)C(F)(F)F.[Fe+2].c1cc[cH-]c1 + CC#N
Settings | electrical conductivity [S/m]
298 K, x1 = 0.01 | 1.35
298 K, x1 = 0.02 | 1.89
298 K, x1 = 0.05 | 2.2
298 K, x1 = 0.06 | 2.14
298 K, x1 = 0.07 | 2.07
298 K, x1 = 0.08 | 1.96
298 K, x1 = 0.1 | 1.8
298 K, x1 = 0.12 | 1.45
298 K, x1 = 0.15 | 1.17
298 K, x1 = 0.2 | 0.759
303 K, x1 = 0.01 | 1.41
303 K, x1 = 0.02 | 1.98
303 K, x1 = 0.03 | 2.28
303 K, x1 = 0.05 | 2.32
303 K, x1 = 0.06 | 2.28
303 K, x1 = 0.07 | 2.2
303 K, x1 = 0.08 | 2.07
303 K, x1 = 0.12 | 1.57
303 K, x1 = 0.15 | 1.24
303 K, x1 = 0.2 | 0.843
308 K, x1 = 0.01 | 1.47
308 K, x1 = 0.02 | 2.06
308 K, x1 = 0.03 | 2.39
308 K, x1 = 0.05 | 2.45
308 K, x1 = 0.06 | 2.41
308 K, x1 = 0.07 | 2.33
308 K, x1 = 0.1 | 2.01
308 K, x1 = 0.12 | 1.7
308 K, x1 = 0.15 | 1.36
313 K, x1 = 0.01 | 1.53
313 K, x1 = 0.02 | 2.15
313 K, x1 = 0.03 | 2.5
313 K, x1 = 0.05 | 2.57
313 K, x1 = 0.06 | 2.54
313 K, x1 = 0.08 | 2.34
313 K, x1 = 0.1 | 2.14
313 K, x1 = 0.12 | 1.81
313 K, x1 = 0.15 | 1.46
313 K, x1 = 0.2 | 1.04
318 K, x1 = 0.02 | 2.23
318 K, x1 = 0.03 | 2.6
318 K, x1 = 0.05 | 2.7
318 K, x1 = 0.07 | 2.61
318 K, x1 = 0.1 | 2.28
318 K, x1 = 0.12 | 1.94
323 K, x1 = 0.02 | 2.33
323 K, x1 = 0.03 | 2.71
323 K, x1 = 0.05 | 2.82
323 K, x1 = 0.06 | 2.8
323 K, x1 = 0.07 | 2.74
323 K, x1 = 0.08 | 2.6
323 K, x1 = 0.1 | 2.41
323 K, x1 = 0.12 | 2.07
323 K, x1 = 0.15 | 1.69
328 K, x1 = 0.01 | 1.69
328 K, x1 = 0.02 | 2.42
328 K, x1 = 0.03 | 2.82
328 K, x1 = 0.06 | 2.93
328 K, x1 = 0.07 | 2.87
328 K, x1 = 0.08 | 2.74
328 K, x1 = 0.1 | 2.55
328 K, x1 = 0.15 | 1.82
328 K, x1 = 0.2 | 1.34
333 K, x1 = 0.05 | 3.08
333 K, x1 = 0.06 | 3.06
333 K, x1 = 0.08 | 2.88
333 K, x1 = 0.1 | 2.69
333 K, x1 = 0.12 | 2.32
333 K, x1 = 0.15 | 1.94
333 K, x1 = 0.2 | 1.46
338 K, x1 = 0.01 | 1.8
338 K, x1 = 0.02 | 2.59
338 K, x1 = 0.03 | 3.03
338 K, x1 = 0.06 | 3.21
338 K, x1 = 0.08 | 3.02
338 K, x1 = 0.1 | 2.83
338 K, x1 = 0.12 | 2.46
338 K, x1 = 0.15 | 2.06
338 K, x1 = 0.2 | 1.57
343 K, x1 = 0.01 | 1.86
343 K, x1 = 0.02 | 2.67
343 K, x1 = 0.03 | 3.14
343 K, x1 = 0.05 | 3.33
343 K, x1 = 0.06 | 3.34
343 K, x1 = 0.1 | 2.96
343 K, x1 = 0.12 | 2.6
343 K, x1 = 0.2 | 1.7
348 K, x1 = 0.01 | 1.91
348 K, x1 = 0.03 | 3.24
348 K, x1 = 0.05 | 3.45
348 K, x1 = 0.06 | 3.46
348 K, x1 = 0.1 | 3.11
348 K, x1 = 0.15 | 2.32
348 K, x1 = 0.2 | 1.81
